Measurements as given in US9796719B2, “Compounds and pharmaceutical compositions thereof for the treatment of inflammatory disorders” (GALAPAGOS NV, priority 2013, dated 2017).
pIC50: −log10 of the molar value.

Columns and labels:
[1] = molecular target: T1, hENPP2 (UniProtKB/SwissProt Sequence ref Q13822) (Homo sapiens (Human), UniProt Q13822); assay: FS3 hENPP2 assay (fluorogenic substrate FS-3); assay type: biochemical; details: hENPP2, FS-3 as substrate
Protocol: Compound IC50 values are determined in a fluorescent hENPP2 (UniProtKB/SwissProt Sequence ref Q13822) biochemical assay using the fluorogenic autotaxin substrate FS-3 as substrate. FS-3 is a doubly labeled analog of LPC wherein the fluorophore is quenched through intramolecular energy transfer. Without hENPP2, the emission of the probe is quenched. If the substrate is hydrolyzed by hENPP2, the emission of the probe is not quenched anymore resulting in a fluorescence increase. Inhibition of hENPP2 by compounds will result in a decrease of the signal.
10 μL of a dilution series of compound, starting from 20 μM highest concentration, ⅕ dilution, is added to the wells. hENPP2 is used at a final concentration of 0.4 μg/mL or 0.64 μg/mL (it will be appreciated by the skilled person that the potency read out is independent of the enzyme concentration). The enzyme is diluted in 50 mM Tris-HCl pH 8.0, 250 mM NaCl, 5 mM KCl, 1 mM MgCl2, 1 mM CaCl2, 0.1% fatty acid free BSA in a total volume of 20 μL. Enzyme mixture is added to compounds and the resulting mixture is incubated for 30 min at room temperature under shaking. The reaction is started by the addition of 20 μL of 0.75 μM FS-3 diluted in the same buffer as described above and the mixture is incubated at 30° C. for 30 min. Fluorescence is read on the Envision (Excitation 485 nm, emission 520 nm).

[2] = molecular target: T1, hENPP2; assay: LPC hENPP2 assay (choline release, LPC as substrate); assay type: biochemical
Summary of the method: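 Choline released from LPC by ENPP2 is quantified after stopping with stop-developer containing 0.6 U/mL choline oxidase, 0.6 U/mL peroxidase, 1.8 mM TOOS, 1.2 mM amino-antipyrine and 20 mM EGTA. Quinoneimine dye read at 555 nm after 30 min at room temperature.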

Row | Structure (SMILES) | pIC50 [1] | pIC50 [2]
1 | CCc1nc2ccc(N3CCN(CCC(N)=O)CC3)nn2c1N(C)c1nc(-c2ccc(F)cc2)cs1 [Compound 52, 3-(4-(2-ethyl-3-((4-(4-fluorophenyl)thiazol-2-yl)(methyl)amino)imidazo[1,2-b]pyridazin-6-yl)piperazin-1-yl)propanamide] | 7.60 to 11.00 | 6.00 to 6.30
2 | CCc1nc2ccc(N3CCN4C(=O)OC[C@@H]4C3)nn2c1N(C)c1nc(-c2ccc(F)cc2)cs1 [Compound 61, (S)-7-(2-ethyl-3-((4-(4-fluorophenyl)thiazol-2-yl)(methyl)amino)imidazo[1,2-b]pyridazin-6-yl)tetrahydro-1H-oxazolo[3,4-a]pyrazin-3 (5H)-one] | 7.60 to 11.00 | < 6.00
3 | CCc1nc2ccc(N3CCN(CC(=O)N4CCCC4)[C@H](CO)C3)nn2c1N(C)c1nc(-c2ccc(F)cc2)cs1 [Compound 64, (S)-2-(4-(2-ethyl-3-((4-(4-fluorophenyl)thiazol-2-yl)(methyl)amino)imidazo[1,2-b]pyridazin-6-yl)-2-(hydroxymethyl)piperazin-1-yl)-1-(pyrrolidin-1-yl)ethanone] | 7.60 to 11.00 | 6.30 to 7.00
4 | CCc1nc2ccc(N3CCS(=O)(=O)CC3)nn2c1N(C)c1nc(-c2ccc(F)cc2)cs1 [Compound 79, [6-(1,1-Dioxothiomorpholin-4-yl)-2-ethyl-imidazo[1,2-b]pyridazin-3-yl]-[4-(4-fluoro-phenyl)-thiazol-2-yl]-methyl-amine] | 7.30 to 7.60 | < 6.00
5 | CCOC(=O)C1CCN(c2ccc3nc(CC)c(N(C)c4nc(-c5ccc(F)cc5)cs4)n3n2)CC1 [Compound 95, ethyl 1-(2-ethyl-3-((4-(4-fluorophenyl)thiazol-2-yl)(methyl)amino)imidazo[1,2-b]pyridazin-6-yl)piperidine-4-carboxylate] | 7.60 to 11.00 | < 6.00
6 | CCc1nc2ccc(N3CCC(C(=O)O)CC3)nn2c1N(C)c1nc(-c2ccc(F)cc2)cs1 [Compound 96, 1-(2-ethyl-3-((4-(4-fluorophenyl)thiazol-2-yl)(methyl)amino)imidazo[1,2-b]pyridazin-6-yl)piperidine-4-carboxylic acid] | 7.60 to 11.00 | < 6.00
7 | CCc1nc2ccc(N3CCC(C(=O)NCCO)CC3)nn2c1N(C)c1nc(-c2ccc(F)cc2)cs1 [Compound 97, 1-(2-ethyl-3-((4-(4-fluorophenyl)thiazol-2-yl)(methyl)amino)imidazo[1,2-b]pyridazin-6-yl)-N-(2-hydroxyethyl)piperidine-4-carboxamide] | 7.60 to 11.00 | 6.00 to 6.30
8 | CCc1nc2ccc(N3CC4CN(S(C)(=O)=O)CC4C3)nn2c1N(C)c1nc(-c2ccc(F)cc2)cs1 (stereo not shown) [Compound 123, N-(2-ethyl-6-(5-(methylsulfonyl)hexahydropyrrolo[3,4-c]pyrrol-2(1H)-yl)imidazo[1,2-b]pyridazin-3-yl)-4-(4-fluorophenyl)-N-methylthiazol-2-amine] | 7.60 to 11.00 | < 6.00
9 | CCc1nc2ccc(N3CC4CN(C(C)=O)CC4C3)nn2c1N(C)c1nc(-c2ccc(F)cc2)cs1 (stereo not shown) [Compound 124, 1-(5-(2-ethyl-3-((4-(4-fluorophenyl)thiazol-2-yl)(methyl)amino)imidazo[1,2-b]pyridazin-6-yl)hexahydropyrrolo[3,4-c]pyrrol-2(1H)-yl)ethanone] | 7.60 to 11.00 | < 6.00
10 | CCc1nc2ccc(N3CC4CN(S(=O)(=O)CCCN5CCOCC5)CC4C3)nn2c1N(C)c1nc(-c2ccc(F)cc2)cs1 (stereo not shown) [Compound 127, N-(2-ethyl-6-(5-(3-morpholinopropylsulfonyl)hexahydropyrrolo[3,4-c]pyrrol-2(1H)-yl)imidazo[1,2-b]pyridazin-3-yl)-4-(4-fluorophenyl)-N-methylthiazol-2-amine] | 7.60 to 11.00 | < 6.00
11 | CCc1nc2ccc(N3CCC(=O)C3)nn2c1N(C)c1nc(-c2ccc(F)cc2)c(C#N)s1 [Compound 172, 2-((2-ethyl-6-(3-oxopyrrolidin-1-yl)imidazo[1,2-b]pyridazin-3-yl)(methyl)amino)-4-(4-fluorophenyl)thiazole-5-carbonitrile] | 7.60 to 11.00 | 6.30 to 7.00
12 | CCc1nc2ccc(C3=CCN(C(=O)OC(C)(C)C)CC3)nn2c1N(C)c1nc(-c2ccc(F)cc2)cs1 [Compound 193, tert-butyl 4-(2-ethyl-3-((4-(4-fluorophenyl)thiazol-2-yl)(methyl)amino)imidazo[1,2-b]pyridazin-6-yl)-5,6-dihydropyridine-1(2H)-carboxylate] | 7.60 to 11.00 | –
13 | CN(c1nc(-c2ccc(F)cc2)cs1)c1c(CO)nc2ccc(C3=CCN(S(C)(=O)=O)CC3)nn12 [Compound 195, (3-((4-(4-fluorophenyl)thiazol-2-yl)(methyl)amino)-6-(1-(methylsulfonyl)-1,2,3,6-tetrahydropyridin-4-yl)imidazo[1,2-b]pyridazin-2-yl)methanol] | 7.60 to 11.00 | < 6.00
14 | CN(c1nc(-c2ccc(F)cc2)cs1)c1c(CC#N)nc2ccc(C3=CCN(S(C)(=O)=O)CC3)nn12 [Compound 196, 2-(3-((4-(4-fluorophenyl)thiazol-2-yl)(methyl)amino)-6-(1-(methylsulfonyl)-1,2,3,6-tetrahydropyridin-4-yl)imidazo[1,2-b]pyridazin-2-yl)acetonitrile] | 7.60 to 11.00 | < 6.00
15 | CN(c1nc(-c2ccc(F)cc2)cs1)c1c(CCC(N)=O)nc2ccc(C3CCN(S(C)(=O)=O)CC3)nn12 [Compound 197, 3-(3-((4-(4-fluorophenyl)thiazol-2-yl)(methyl)amino)-6-(1-(methylsulfonyl)piperidin-4-yl)imidazo[1,2-b]pyridazin-2-yl)propanamide] | 7.60 to 11.00 | 6.00 to 6.30
16 | CN(c1nc(-c2ccc(F)cc2)c(C(=O)C(F)(F)F)s1)c1c(CCC#N)nc2ccc(C3CCN(S(C)(=O)=O)CC3)nn12 [Compound 199, 3-(3-((4-(4-fluorophenyl)-5-(2,2,2-trifluoroacetoyl)thiazol-2-yl)(methyl)amino)-6-(1-(methylsulfonyl)piperidin-4-yl)imidazo[1,2-b]pyridazin-2-yl)propanenitrile] | 7.60 to 11.00 | < 6.00
17 | CN(c1nc(-c2ccc(F)cc2)cs1)c1c(CCCO)nc2ccc(C3CCN(S(C)(=O)=O)CC3)nn12 [Compound 200, 3-(3-((4-(4-fluorophenyl)thiazol-2-yl)(methyl)amino)-6-(1-(methylsulfonyl)piperidin-4-yl)imidazo[1,2-b]pyridazin-2-yl)propan-1-ol] | 7.60 to 11.00 | < 6.00
18 | CCc1nc2cnc(N3CCN(CC(=O)N4CCC4)CC3)cn2c1N(C)c1nc(-c2ccc(F)cc2)c(C#N)s1 [Cpd 4, 2-((6-(4-(2-(azetidin-1-yl)-2-oxoethyl)piperazin-1-yl)-2-ethylimidazo[1,2-a]pyrazin-3-yl)(methyl)amino)-4-(4-fluorophenyl) thiazole-5-carbonitrile] | 7.60 to 11.00 | 6.30 to 7.00
19 | CCc1nc2ccc(C3CCN(CC(=O)N(C)C)CC3)nn2c1N(C)c1nc(-c2ccc(F)cc2C#N)cs1 [Cpd 208, 2-(4-(3-((4-(2-cyano-4-fluorophenyl)thiazol-2-yl)(methyl)amino)-2-ethylimidazo[1,2-b]pyridazin-6-yl)piperidin-1-yl)-N,N-dimethylacetamide] | – | 6.30 to 7.00
20 | CCc1nc2ccc(C3CCN(CC(=O)NC)CC3)nn2c1N(C)c1nc(-c2ccc(F)cc2C#N)cs1 [Cpd 209, 2-(4-(3-((4-(2-cyano-4-fluorophenyl)thiazol-2-yl)(methyl)amino)-2-ethylimidazo[1,2-b]pyridazin-6-yl)piperidin-1-yl)-N-methylacetamide] | – | 6.30 to 7.00
21 | CCc1nc2ccc(C3CCN(CC(=O)N4CC(O)C4)CC3)nn2c1N(C)c1nc(-c2ccc(F)cc2C#N)c(C)s1 [Cpd 210, 2-(2-((2-ethyl-6-(1-(2-(3-hydroxyazetidin-1-yl)-2-oxoethyl)piperidin-4-yl)imidazo[1,2-b]pyridazin-3-yl)(methyl)amino)-5-methylthiazol-4-yl)-5-fluorobenzonitrile] | – | < 6.00
22 | CCc1nc2ccc(C3CCN(CC(=O)NC)CC3)nn2c1N(C)c1nc(-c2ccc(F)cc2C#N)c(C)s1 [Cpd 211, 2-(4-(3-((4-(2-cyano-4-fluorophenyl)-5-methylthiazol-2-yl)(methyl)amino)-2-ethylimidazo[1,2-b]pyridazin-6-yl)piperidin-l-yl)-N-methylacetamide] | – | < 6.00
23 | CCc1nc2ccc(C3CCN(CC(=O)N4CC(O)C4)CC3)nn2c1N(C)c1nc(-c2ccc(F)cc2C#N)ns1 [Cpd 220, 2-(5-((2-ethyl-6-(1-(2-(3-hydroxyazetidin-1-yl)-2-oxoethyl)piperidin-4-yl)imidazo[1,2-b]pyridazin-3-yl)(methyl)amino)-1,2,4-thiadiazol-3-yl)-5-fluorobenzonitrile] | – | 6.30 to 7.00
